Test results published in PubChem BioAssay (NCI).
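Five concentrations, 48 hours, 96-well plates. GI50 is the concentration that inhibits growth by half. The concentration for full growth arrest is given as TGI.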

What was measured:
Experiment in all cases: inhibition of tumour cell growth, NCI panel, 48 h
NCI-H226 lung = test system: NCI-H226 lung
786-0 renal = test system: 786-0 renal
SF-295 CNS = test system: SF-295 CNS
NCI-H460 lung = test system: NCI-H460 lung
UO-31 renal = test system: UO-31 renal
OVCAR-4 ovarian = test system: OVCAR-4 ovarian
SR leukemia = test system: SR leukemia
UACC-257 melanoma = test system: UACC-257 melanoma
HCT-116 colon = test system: HCT-116 colon
SF-539 CNS = test system: SF-539 CNS

Structure (SMILES) | GI50 (NCI-H226 lung) | TGI (NCI-H226 lung) | GI50 (786-0 renal) | TGI (786-0 renal) | GI50 (SF-295 CNS) | TGI (SF-295 CNS) | GI50 (NCI-H460 lung) | TGI (NCI-H460 lung) | GI50 (UO-31 renal) | TGI (UO-31 renal) | GI50 (OVCAR-4 ovarian) | TGI (OVCAR-4 ovarian) | GI50 (SR leukemia) | TGI (SR leukemia) | GI50 (UACC-257 melanoma) | TGI (UACC-257 melanoma) | GI50 (HCT-116 colon) | TGI (HCT-116 colon) | GI50 (SF-539 CNS) | TGI (SF-539 CNS)
N#Cc1nc(-c2ccc(F)cc2)oc1S(=O)(=O)N1CCOCC1 | 4.33 µM | 19.9 µM | 3.34 µM | 11.7 µM | 16.1 µM | 30.6 µM | 12.6 µM | 27.3 µM | 1.62 µM | 2.97 µM | 3.08 µM | 10.2 µM | 0.439 µM | 2.92 µM | 7 µM | 20.7 µM | 1.28 µM | 3.07 µM | 1.88 µM | 4.02 µM
O=C(O/N=C1/CCC/C1=C\c1ccccc1)c1ccc([N+](=O)[O-])cc1 |  | > 100 µM |  | > 100 µM |  | > 100 µM |  | > 100 µM |  | 74.9 µM |  | > 100 µM |  | > 100 µM |  | > 100 µM |  | > 100 µM |  | > 100 µM
O=C(O)Cc1c[nH]c2ccc(F)cc12 |  | > 100 µM |  | > 100 µM |  | > 100 µM |  | > 100 µM |  | > 100 µM |  | > 100 µM |  | > 100 µM |  | > 100 µM |  | > 100 µM |  | > 100 µM
CN1CCCNCCN(CCc2ccccn2)CCCN(C)CC1 |  | > 100 µM |  | 53.9 µM |  | > 100 µM |  | > 100 µM |  | > 100 µM |  | > 100 µM |  | 57.3 µM |  | > 100 µM |  | > 100 µM |  | > 100 µM
O=C1CSC(N2CCN(c3cccc(Cl)c3)CC2)=N1 | > 100 µM | > 100 µM | > 100 µM | > 100 µM | > 100 µM | > 100 µM | > 100 µM | > 100 µM | > 100 µM | > 100 µM | > 100 µM | > 100 µM | > 100 µM | > 100 µM | > 100 µM | > 100 µM | > 100 µM | > 100 µM | > 100 µM | > 100 µM
C/C(=N\NC(N)=S)c1ccc(C)cc1C |  | > 100 µM |  | > 100 µM |  | > 100 µM |  | > 100 µM |  | > 100 µM |  | > 100 µM |  | > 100 µM |  | > 100 µM |  | > 100 µM |  | > 100 µM
Fc1ccc(-c2nn(-c3ccccc3)cc2-c2nc3ccccc3o2)cc1 | 13.6 µM | 32 µM | 15 µM | > 100 µM | 2.32 µM | 8.3 µM | 2.84 µM | 9.95 µM | 1.67 µM | 35.1 µM | 9.12 µM | > 100 µM | 3.71 µM | > 100 µM | 13.3 µM | 48.2 µM | 2.5 µM | 20.7 µM | 8.88 µM | 28.7 µM
O=C1CCC(NC(=O)c2ccccc2)C(=O)N1 (stereo not given) |  | > 100 µM |  | > 100 µM |  | > 100 µM |  | > 100 µM |  | > 100 µM |  | > 100 µM |  | > 100 µM |  | > 100 µM |  | > 100 µM |  | > 100 µM
CCOC(=O)c1cc(-c2ccc([N+](=O)[O-])cc2)n(-c2ccc(C(=O)O)c(O)c2)c1C | 11.2 µM | 33.9 µM | 4.84 µM | 17.2 µM | 3.72 µM | 19.6 µM | 4.16 µM | 17 µM | 3.74 µM | 18.3 µM | 4.11 µM | 19.7 µM | 9.3 µM | > 100 µM | 9.2 µM | 22 µM | 2.78 µM | 11.6 µM | 10.6 µM | 22.5 µM
CC1=C2[C@@H](CC1)[C@]1(C)O[C@@](C(C)C)(C[C@H]1OC(=O)[C@H](C)O)[C@H]2OC(=O)/C=C/c1ccccc1 | 12.9 µM | 29.6 µM | 3.26 µM | 25.4 µM | 11.5 µM | 24.8 µM | 14.8 µM | 36.7 µM | 1.01 µM | 18.7 µM | 10.3 µM | 24.9 µM | 10.3 µM | 37.5 µM | 17 µM | 34.1 µM | 13.4 µM | 29.2 µM | 15 µM | 30.9 µM
